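Exposure lasted 48 hours, with cells grown in 96-well plates and compounds tested at five concentrations. Definition used: TGI = concentration required for complete inhibition of growth.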
Legend:
Assay in all cases: NCI tumour cell line growth inhibition, 48 h
NCI/ADR-RES ovarian = system: NCI/ADR-RES ovarian
A549 NSCLC = system: A549 NSCLC
HCT-15 colon = system: HCT-15 colon
OVCAR-5 ovarian = system: OVCAR-5 ovarian
COLO 205 colon = system: COLO 205 colon
LOX IMVI melanoma = system: LOX IMVI melanoma
SW-620 colon = system: SW-620 colon
HOP-92 NSCLC = system: HOP-92 NSCLC
SK-MEL-28 melanoma = system: SK-MEL-28 melanoma
SNB-19 CNS = system: SNB-19 CNS

| Compound | TGI (NCI/ADR-RES ovarian) [µM] | TGI (A549 NSCLC) [µM] | TGI (HCT-15 colon) [µM] | TGI (OVCAR-5 ovarian) [µM] | TGI (COLO 205 colon) [µM] | TGI (LOX IMVI melanoma) [µM] | TGI (SW-620 colon) [µM] | TGI (HOP-92 NSCLC) [µM] | TGI (SK-MEL-28 melanoma) [µM] | TGI (SNB-19 CNS) [µM] |
| --- | --- | --- | --- | --- | --- | --- | --- | --- | --- | --- |
| Cc1cc(C)c(S(=O)(=O)N[C@@H](/C=C(\Br)CO)C(C)C)c(C)c1 | > 100 | > 100 | > 100 | > 100 | 31.8 | 36.3 | > 100 | 75.5 | > 100 | > 100 |
| Cc1cn(CC2=NCCN2)c(=O)[nH]c1=O | > 100 | > 100 | > 100 | > 100 | > 100 | > 100 | > 100 | > 100 | > 100 | > 100 |
| CSCCC(NCc1c(O)ccc2ccc(=O)oc12)C(=O)O (stereo not given) | > 100 | > 100 | > 100 | > 100 | > 100 | > 100 | > 100 | > 100 | > 100 | > 100 |
| CCOC(=O)c1c(O)[nH]c(=O)c(CC)c1C | > 100 | > 100 | > 100 | > 100 | > 100 | > 100 | > 100 | > 100 | > 100 | > 100 |
| CC(C)(C)c1cc(C(=O)/C=C/c2ccc(O)c(O)c2O)cc(C(C)(C)C)c1O | 14.8 | 40.9 | 14.8 | 39.1 | 26.3 | 24.3 | 17.9 | > 42.6 | 28.1 | > 29.3 |
| Cc1ccc(-c2sc(-c3ccc(C)cc3)c3c2C2CCC3C2)cc1 | > 50 | > 50 | > 50 | > 50 | > 50 | > 50 | > 50 | > 50 | > 50 | > 50 |
| Cc1ccc(/C=C2\N=C(N3CCCCC3)NC2=O)cc1 | > 100 | > 100 | > 100 | > 100 | > 100 | > 100 | > 100 | > 100 | > 100 | > 100 |
| Cc1ccc(/C=C2\CN(C)CC3C(c4ccc(C)cc4)=C(C#N)C(=O)NC23)cc1 (stereo not given) | > 50 | > 50 | > 50 | > 50 | > 50 | > 50 | > 50 | > 50 | > 50 | > 50 |
| COc1ncnc2c1cnn2Cc1cn(COCC(O)CO)nn1 (stereo not given) | > 100 | > 100 | > 100 | > 100 | > 100 | > 100 | > 100 | > 100 | > 100 | > 100 |
| CC(=O)OC1/C(=C/c2ccc([N+](=O)[O-])cc2)C[C@H]2[C@@H]3CC=C4C[C@@H](OC(C)=O)CC[C@]4(C)[C@H]3CC[C@]12C (stereo not given in full) | > 100 | > 100 | > 100 | > 100 | > 100 | > 100 | > 100 | > 100 | > 100 | > 100 |
| CC(=O)Nc1ccc(Nc2cc(=O)n(C)c(=O)[nH]2)cc1 | > 100 | > 100 | > 100 | > 100 | > 100 | > 100 | > 100 | > 100 | > 100 | > 100 |
| COc1cc2c(cc1OC)C1Cc3ccccc3CCN1CC2 (stereo not given) | > 100 | > 100 | > 100 | > 100 | > 100 | > 100 | > 100 | > 100 | > 100 | > 100 |
| CC1=C2C(=O)O[C@@H](c3ccoc3)[C@]2(C)CCC1=O | > 100 | > 100 | > 100 | > 100 | > 100 | > 100 | > 100 | > 100 | > 100 | > 100 |
| Cc1nc(-c2ccccc2)c(C)n2c1nc1ccccc12 | 69.7 | > 100 | 74.5 | > 100 | > 100 | > 100 | > 100 | 47.9 | > 100 | > 100 |
| CCOc1cc(/C=N\N(C)C)cc(/C=N\N(C)C)c1O | > 100 | > 100 | > 100 | > 100 | 34.3 | 79.5 | > 100 | 49.7 | > 100 | > 100 |
| CCC1(OC(=O)CN2CCN(CCO)CC2)C(=O)OCc2c1cc1n(c2=O)Cc2cc3ccccc3nc2-1 (stereo not given) | 7.99 | 29.5 | 26.2 | 7.6 | 15.5 | 1.58 | 10.3 | 6.96 | 39.2 | 28.6 |
| N#Cc1cccc(C2ON=C(c3ccc([N+](=O)[O-])cc3)N2C23CC4CC(CC(C4)C2)C3)c1 (stereo not given) | > 100 | > 100 | > 100 | 31 | > 100 | > 100 | > 100 | > 100 | > 100 | > 100 |
| CCOC(=O)N1CCN(Cc2cc(=O)n3cc(C)ccc3n2)CC1 | > 100 | > 100 | > 100 | > 100 | > 100 | > 100 | > 100 | > 100 | > 100 | > 100 |
| CCOC(=O)c1cccc(NC(=O)CBr)c1 | 4.39 | 3.96 | 3.66 | 3.28 | 3.29 | 0.407 | 1.66 | 4.14 | 7.75 | 16.6 |
| O=C(c1ccc(Cl)cc1Cl)N(Cc1cccnc1)C(=S)N(Cc1cccnc1)C(=O)c1ccc(Cl)cc1Cl | 76 | 38 | 15.4 | 23.2 | 4.09 | 16.7 | 80.5 | 12 | 33.7 | 25.1 |
| Cc1ccc(S(=O)(=O)NC(=O)NC(CO)C(=O)O)cc1 (stereo not given) | > 100 | > 100 | > 100 | > 100 | > 100 | > 100 | > 100 | > 100 | > 100 | > 100 |

Source: PubChem BioAssay (NCI)
